Results taken from PubChem BioAssay AID1963851 (Molecular Pharmacology Branch, DTP, NCI, 2024).

Tested on: 188146-221-R-J1-PDC complex spheroid viability
Test: Anticancer human tumor 188146-221-R-J1-PDC patient-derived colon adenocarcinoma cell line growth inhibition [POLQ]
Conditions: for IC50: curve of first compound; for viability, T/C: stronger effect = lower value
In short: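 Patient-derived tumour cells were co-cultured with HUVEC and mesenchymal stem cells as multicellular spheroids at 37 °C. They were treated with POLQ inhibitors (novobiocin, ART-558, RP6685) alone or combined with other agents. Top concentrations were at or near clinical Cmax (otherwise 10 microM; SN-38 at 1 microM), decreasing in half-log steps.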

[1] = second compound 0.0316 µM, first compound 0.0316 µM
[2] = second compound 0.0316 µM, first compound 0.1 µM
[3] = second compound 0.0316 µM, first compound 0.316 µM
[4] = second compound 0.0316 µM, first compound 1 µM
[5] = second compound 0.0316 µM, first compound 3.16 µM
[6] = second compound 0.0316 µM, first compound 10 µM
[7] = second compound 0.1 µM, first compound 0.0316 µM
[8] = second compound 0.1 µM, first compound 0.1 µM
[9] = second compound 0.1 µM, first compound 0.316 µM
[10] = second compound 0.1 µM, first compound 1 µM
[11] = second compound 0.1 µM, first compound 3.16 µM
[12] = second compound 0.1 µM, first compound 10 µM
[13] = second compound 0.316 µM, first compound 0.0316 µM
[14] = second compound 0.316 µM, first compound 0.1 µM
[15] = second compound 0.316 µM, first compound 0.316 µM
[16] = second compound 0.316 µM, first compound 1 µM
[17] = second compound 0.316 µM, first compound 3.16 µM
[18] = second compound 0.316 µM, first compound 10 µM
[19] = second compound 1 µM, first compound 0.0316 µM
[20] = second compound 1 µM, first compound 0.1 µM
[21] = second compound 1 µM, first compound 0.316 µM
[22] = second compound 1 µM, first compound 1 µM
[23] = second compound 1 µM, first compound 3.16 µM
[24] = second compound 1 µM, first compound 10 µM
[25] = second compound 3.16 µM, first compound 0.0316 µM
[26] = second compound 3.16 µM, first compound 0.1 µM
[27] = second compound 3.16 µM, first compound 0.316 µM
[28] = second compound 3.16 µM, first compound 1 µM
[29] = second compound 3.16 µM, first compound 3.16 µM
[30] = second compound 3.16 µM, first compound 10 µM
[31] = second compound 10 µM, first compound 0.0316 µM
[32] = second compound 10 µM, first compound 0.1 µM
[33] = second compound 10 µM, first compound 0.316 µM
[34] = second compound 10 µM, first compound 1 µM
[35] = second compound 10 µM, first compound 3.16 µM
[36] = second compound 10 µM, first compound 10 µM
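Also: spheroids exposed to compounds for seven days.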
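For viability, T/C in this document: 100% = DMSO vehicle control viability.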

CC1COCCN1c1cc(C2(S(C)(=N)=O)CC2)nc(-c2ccnc3[nH]ccc23)n1 (stereo unspecified) + Nc1ccc(C#CCN(C(=O)Cc2ncc(C(F)(F)F)cc2C(F)(F)F)c2ccc(F)cc2)nn1
IC50 (second compound 0.0316 µM): 4630 nM
IC50 (second compound 0.1 µM): 4500 nM
IC50 (second compound 0.316 µM): 4590 nM
IC50 (second compound 1 µM): 4550 nM
IC50 (second compound 3.16 µM): 4660 nM
IC50 (second compound 10 µM): 4110 nM
viability, T/C [1]: 105%
viability, T/C [2]: 110%
viability, T/C [3]: 95.7%
viability, T/C [4]: 100%
viability, T/C [5]: 61.2%
viability, T/C [6]: 27.2%
viability, T/C [7]: 106%
viability, T/C [8]: 92.6%
viability, T/C [9]: 109%
viability, T/C [10]: 92.1%
viability, T/C [11]: 60.5%
viability, T/C [12]: 26.9%
viability, T/C [13]: 110%
viability, T/C [14]: 109%
viability, T/C [15]: 99.7%
viability, T/C [16]: 101%
viability, T/C [17]: 61.9%
viability, T/C [18]: 24.8%
viability, T/C [19]: 95.1%
viability, T/C [20]: 89.7%
viability, T/C [21]: 111%
viability, T/C [22]: 89.2%
viability, T/C [23]: 63.3%
viability, T/C [24]: 22.2%
viability, T/C [25]: 103%
viability, T/C [26]: 109%
viability, T/C [27]: 93.3%
viability, T/C [28]: 82.7%
viability, T/C [29]: 65.3%
viability, T/C [30]: 24.1%
viability, T/C [31]: 107%
viability, T/C [32]: 99.6%
viability, T/C [33]: 101%
viability, T/C [34]: 90%
viability, T/C [35]: 58.1%
viability, T/C [36]: 22.1%

COc1cccc2c1C(=O)c1c(O)c3c(c(O)c1C2=O)CC(O)(C(=O)CO)CC3OC1CC(N)C(O)C(C)O1 (stereo unspecified) + Cc1cccc(N(C)C(=O)C2C(O)CCN2c2nc(C)cc(C(F)(F)F)c2C#N)c1
IC50 (second compound 0.0316 µM): 102 nM
IC50 (second compound 0.1 µM): 146 nM
IC50 (second compound 0.316 µM): 117 nM
IC50 (second compound 1 µM): 117 nM
IC50 (second compound 3.16 µM): 97.9 nM
IC50 (second compound 10 µM): 75.4 nM
viability, T/C [1]: 83.8%
viability, T/C [2]: 48%
viability, T/C [3]: 31.3%
viability, T/C [4]: 9.29%
viability, T/C [5]: 0.34%
viability, T/C [6]: 0.84%
viability, T/C [7]: 75.1%
viability, T/C [8]: 56.8%
viability, T/C [9]: 34.5%
viability, T/C [10]: 8.42%
viability, T/C [11]: 0.28%
viability, T/C [12]: 0.45%
viability, T/C [13]: 81%
viability, T/C [14]: 48.9%
viability, T/C [15]: 36.7%
viability, T/C [16]: 10%
viability, T/C [17]: 0.19%
viability, T/C [18]: 0.47%
viability, T/C [19]: 74%
viability, T/C [20]: 51%
viability, T/C [21]: 32.6%
viability, T/C [22]: 10.9%
viability, T/C [23]: 0.17%
viability, T/C [24]: 0.44%
viability, T/C [25]: 69.8%
viability, T/C [26]: 47.2%
viability, T/C [27]: 29.8%
viability, T/C [28]: 6.51%
viability, T/C [29]: 0.32%
viability, T/C [30]: 0.65%
viability, T/C [31]: 74.8%
viability, T/C [32]: 39.5%
viability, T/C [33]: 26.4%
viability, T/C [34]: 3.83%
viability, T/C [35]: 0.3%
viability, T/C [36]: 0.64%

Cn1ncnc1[C@H]1c2n[nH]c(=O)c3cc(F)cc(c23)N[C@@H]1c1ccc(F)cc1 + Nc1ccc(C#CCN(C(=O)Cc2ncc(C(F)(F)F)cc2C(F)(F)F)c2ccc(F)cc2)nn1
IC50 (second compound 0.0316 µM): > 100 nM
IC50 (second compound 0.1 µM): > 100 nM
IC50 (second compound 0.316 µM): > 100 nM
IC50 (second compound 1 µM): > 100 nM
IC50 (second compound 3.16 µM): > 100 nM
IC50 (second compound 10 µM): > 100 nM
viability, T/C (second compound 0.0316 µM, first compound 0.000316 µM): 92%
viability, T/C (second compound 0.0316 µM, first compound 0.001 µM): 109%
viability, T/C (second compound 0.0316 µM, first compound 0.00316 µM): 98.2%
viability, T/C (second compound 0.0316 µM, first compound 0.01 µM): 116%
viability, T/C [1]: 98.7%
viability, T/C [2]: 93.2%
viability, T/C (second compound 0.1 µM, first compound 0.000316 µM): 111%
viability, T/C (second compound 0.1 µM, first compound 0.001 µM): 104%
viability, T/C (second compound 0.1 µM, first compound 0.00316 µM): 108%
viability, T/C (second compound 0.1 µM, first compound 0.01 µM): 102%
viability, T/C [7]: 100%
viability, T/C [8]: 96%
viability, T/C (second compound 0.316 µM, first compound 0.000316 µM): 102%
viability, T/C (second compound 0.316 µM, first compound 0.001 µM): 103%
viability, T/C (second compound 0.316 µM, first compound 0.00316 µM): 96.7%
viability, T/C (second compound 0.316 µM, first compound 0.01 µM): 93.8%
viability, T/C [13]: 112%
viability, T/C [14]: 98.9%
viability, T/C (second compound 1 µM, first compound 0.000316 µM): 100%
viability, T/C (second compound 1 µM, first compound 0.001 µM): 107%
viability, T/C (second compound 1 µM, first compound 0.00316 µM): 109%
viability, T/C (second compound 1 µM, first compound 0.01 µM): 94.5%
viability, T/C [19]: 95.2%
viability, T/C [20]: 97.2%
viability, T/C (second compound 3.16 µM, first compound 0.000316 µM): 106%
viability, T/C (second compound 3.16 µM, first compound 0.001 µM): 99.3%
viability, T/C (second compound 3.16 µM, first compound 0.00316 µM): 95.9%
viability, T/C (second compound 3.16 µM, first compound 0.01 µM): 91.7%
viability, T/C [25]: 95.8%
viability, T/C [26]: 93%
viability, T/C (second compound 10 µM, first compound 0.000316 µM): 108%
viability, T/C (second compound 10 µM, first compound 0.001 µM): 95.3%
viability, T/C (second compound 10 µM, first compound 0.00316 µM): 116%
viability, T/C (second compound 10 µM, first compound 0.01 µM): 119%
viability, T/C [31]: 109%
viability, T/C [32]: 90.1%
